{"source": "ChEMBL document CHEMBL4715696", "about": "“In vitro synergistic anticancer activity of the combination of T-type calcium channel blocker and chemotherapeutic agent in A549 cells” (Bioorg Med Chem Lett, 2016)", "key": {"[1]": {"assay": "Increase in recruitment of […] p27KIP1 to CDK2 in human A549 cells assessed as fold change at 10 uM incubated for 12 hrs by immunoprecipitation/immunoblot analysis (reference value: 0.43)", "format": "functional"}, "[2]": {"tested_on": "A549", "assay": "Induction of cell cycle arrest in human A549 cells assessed as accumulation at sub G1 phase at 5 uM after 24 hrs by flow cytometric analysis (reference value: 7.8%)", "format": "functional"}, "[3]": {"tested_on": "A549", "assay": "Induction of cell cycle arrest in human A549 cells assessed as accumulation at G2/M phase at 5 uM after 24 hrs by flow cytometric analysis (reference value: 21.6%)", "format": "functional"}, "[4]": {"tested_on": "A549", "assay": "Induction of cell cycle arrest in human A549 cells assessed as accumulation at S phase at 5 uM after 48 hrs by flow cytometric analysis (reference value: 10.4 to 12%)", "format": "functional"}, "[5]": {"tested_on": "A549", "assay": "Decrease in cell cycle associated protein expression in human A549 cells assessed as reduction in CDK2 expression after 48 hrs by Western blot analysis", "format": "functional, cell-based", "conditions": "dose 2.5-10 µM"}, "[6]": {"tested_on": "A549", "assay": "Decrease in cell cycle associated protein expression in human A549 cells assessed as fold change in CDK2 expression at 5 uM after 48 hrs by Western blot analysis (reference value: 0.48)", "format": "functional"}, "[7]": {"tested_on": "A549", "assay": "Decrease in cell cycle associated protein expression in human A549 cells assessed as fold change in CDK4 expression at 2.5 uM after 48 hrs by Western blot analysis (reference value: 0.62)", "format": "functional"}, "[8]": {"tested_on": "A549", "assay": "Decrease in cell cycle associated protein expression in human A549 cells assessed as fold change in CDK4 expression at 5 uM after 48 hrs by Western blot analysis (reference value: 0.62)", "format": "functional"}, "[9]": {"tested_on": "A549", "assay": "Decrease in cell cycle associated protein expression in human A549 cells assessed as fold change in CDK4 expression at 10 uM after 48 hrs by Western blot analysis (reference value: 0.62 to 0.87)", "format": "functional"}, "[10]": {"tested_on": "A549", "assay": "Decrease in cell cycle associated protein expression in human A549 cells assessed as fold change in CDK4 expression at 10 uM after 6 hrs by Western blot analysis (reference value: 0.87)", "format": "functional"}, "[11]": {"tested_on": "A549", "assay": "Decrease in cell cycle associated protein expression in human A549 cells assessed as fold change in CDK4 expression at 10 uM after 36 hrs by Western blot analysis (reference value: 0.87)", "format": "functional"}, "[12]": {"tested_on": "A549", "assay": "Decrease in cell cycle associated protein expression in human A549 cells assessed as fold change in CDK6 expression at 2.5 uM after 48 hrs by Western blot analysis (reference value: 1.05)", "format": "functional"}, "[13]": {"tested_on": "A549", "assay": "Decrease in cell cycle associated protein expression in human A549 cells assessed as fold change in CDK6 expression at 5 uM after 48 hrs by Western blot analysis (reference value: 1.05)", "format": "functional"}, "[14]": {"tested_on": "A549", "assay": "Decrease in cell cycle associated protein expression in human A549 cells assessed as fold change in CDK6 expression at 10 uM after 48 hrs by Western blot analysis (reference value: 0.7 to 1.05)", "format": "functional"}, "[15]": {"tested_on": "A549", "assay": "Decrease in cell cycle associated protein expression in human A549 cells assessed as fold change in cyclin D1 expression at 10 uM after 36 hrs by Western blot analysis (reference value: 0.68)", "format": "functional"}, "[16]": {"tested_on": "A549", "assay": "Decrease in cell cycle associated protein expression in human A549 cells assessed as reduction in cyclin D2 expression at 10 uM by Western blot analysis", "format": "functional, cell-based", "conditions": "time 6-48 hrs, TDE = time-dependent effect"}, "[17]": {"tested_on": "A549", "assay": "Decrease in cell cycle associated protein expression in human A549 cells assessed as fold change in cyclin D3 expression at 5 uM after 48 hrs by Western blot analysis (reference value: 0.73)", "format": "functional"}, "[18]": {"tested_on": "A549", "assay": "Decrease in cell cycle associated protein expression in human A549 cells assessed as fold change in cyclin D3 expression at 10 uM after 36 hrs by Western blot analysis (reference value: 1.09)", "format": "functional"}, "[19]": {"tested_on": "A549", "assay": "Decrease in cell cycle associated protein expression in human A549 cells assessed as fold change in cyclin E expression at 5 uM after 48 hrs by Western blot analysis (reference value: 0.37)", "format": "functional"}, "[20]": {"assay": "Upregulation of p27KIP1 protein expression in human A549 cells assessed as fold change in expression at 5 uM after 48 hrs by Western blot analysis (reference value: 0.48)", "format": "functional"}, "[21]": {"assay": "Upregulation of p27KIP1 protein expression in human A549 cells assessed as fold change in expression at 10 uM after 48 hrs by Western blot analysis (reference value: 0.48 to 0.83)", "format": "functional"}, "[22]": {"tested_on": "A549", "assay": "Upregulation of p27KIP1 protein expression in human A549 cells at 10 uM by Western blot analysis", "format": "functional, cell-based", "conditions": "time 6-48 hrs, TDE = time-dependent effect"}, "[23]": {"assay": "Upregulation of p27KIP1 protein expression in human A549 cells assessed as fold change in expression at 10 uM after 36 hrs by Western blot analysis (reference value: 0.83)", "format": "functional"}, "[24]": {"assay": "Metabolic stability in rat liver microsomes assessed as parent compound remaining at 1 uM measured for 30 mins", "format": "ADME, Microsome", "conditions": "read-out: Stabilty"}, "[25]": {"biological_target": "CYP2C9 (Homo sapiens, UniProt P11712)", "sequence (P11712 whole entry)": "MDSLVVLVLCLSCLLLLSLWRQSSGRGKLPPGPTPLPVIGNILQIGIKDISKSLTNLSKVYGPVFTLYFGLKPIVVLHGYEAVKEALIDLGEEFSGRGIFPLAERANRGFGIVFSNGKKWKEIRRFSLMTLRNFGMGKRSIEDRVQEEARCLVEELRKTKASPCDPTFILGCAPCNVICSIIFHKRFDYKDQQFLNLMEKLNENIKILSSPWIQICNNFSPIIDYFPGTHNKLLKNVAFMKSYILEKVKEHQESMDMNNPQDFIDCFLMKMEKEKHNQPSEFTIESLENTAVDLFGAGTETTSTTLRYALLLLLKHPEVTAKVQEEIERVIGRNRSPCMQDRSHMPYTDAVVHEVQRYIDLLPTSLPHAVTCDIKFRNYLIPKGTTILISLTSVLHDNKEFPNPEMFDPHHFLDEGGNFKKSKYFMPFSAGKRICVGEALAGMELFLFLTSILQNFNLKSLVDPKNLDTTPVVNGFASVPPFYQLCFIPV", "assay": "Inhibition of human CYP2C9 assessed as residual activity at 10 uM measured after 15 mins relative to control", "format": "ADME", "conditions": "read-out: Activity"}, "[26]": {"assay": "Metabolic stability in human plasma assessed as parent compound remaining at 10 uM measured after 1 hr", "format": "ADME, cell-free", "conditions": "read-out: Stabilty"}, "[27]": {"assay": "Metabolic stability in rat plasma assessed as parent compound remaining at 10 uM measured after 1 hr", "format": "ADME, cell-free", "conditions": "read-out: Stabilty"}, "[28]": {"assay": "Metabolic stability in rat plasma assessed as parent compound remaining at 10 uM measured after 2 hrs", "format": "ADME, cell-free", "conditions": "read-out: Stabilty"}, "[29]": {"tested_on": "A549", "assay": "Potentiation of etoposide-induced cell cycle arrest in human A549 cells assessed as accumulation at G1 phase at 2.5 uM in presence of etoposide after 48 hrs by flow cytometric analysis (reference value: 36%)", "format": "functional"}, "[30]": {"tested_on": "A549", "assay": "Induction of cell cycle arrest in human A549 cells assessed as accumulation at G2/M phase at 2.5 uM after 48 hrs by flow cytometric analysis (Rvb =22.1%)", "format": "functional"}, "[31]": {"tested_on": "A549", "assay": "Potentiation of cisplatin-induced cell cycle arrest in human A549 cells assessed as accumulation at S phase at 5 uM in presence of cisplatin after 48 hrs by flow cytometric analysis (Rvb =15.8%)", "format": "functional"}, "[32]": {"tested_on": "A549", "assay": "Potentiation of cisplatin-induced cell cycle arrest in human A549 cells assessed as accumulation at G2/M phase at 5 uM in presence of cisplatin after 48 hrs by flow cytometric analysis (Rvb =52.9%)", "format": "functional"}, "[33]": {"tested_on": "A549", "assay": "Potentiation of cisplatin-induced cell cycle arrest in human A549 cells assessed as accumulation at G2/M phase at 10 uM in presence of cisplatin after 48 hrs by flow cytometric analysis (Rvb =52.9%)", "format": "functional"}, "[34]": {"tested_on": "A549", "assay": "Induction of cell cycle arrest in human A549 cells assessed as accumulation at sub G1 phase at 10 uM after 48 hrs by flow cytometric analysis (reference value: 1.9%)", "format": "functional"}, "[35]": {"tested_on": "A549", "assay": "Induction of cell cycle arrest in human A549 cells assessed as accumulation at G1 phase at 10 uM after 48 hrs by flow cytometric analysis (reference value: 65.5%)", "format": "functional"}, "[36]": {"assay": "Solubility of the compound at pH 7.4", "format": "physicochemical", "conditions": "buffer"}, "[37]": {"assay": "Permeability of the compound by PAMPA assay", "format": "ADME", "conditions": "read-out: permeability"}}, "data": [{"smiles": "CN(C)C(=O)NCCCN(C)C1=Nc2ccccc2C(CC(=O)NCc2ccc(F)cc2)N1c1ccc(C2CCCCC2)cc1", "note": "(configuration not stated)", "values": [{"measurement": "fold change (FC)", "setting": "[1]", "result": 0.6}, {"measurement": "Activity", "setting": "[2]", "result": 4.7, "unit": "%"}, {"measurement": "Activity", "setting": "[3]", "result": 19.3, "unit": "%"}, {"measurement": "Activity", "setting": "[4]", "result": 8.3, "unit": "%"}, {"measurement": "Activity", "setting": "[5]", "result": "Dose-dependent effect"}, {"measurement": "fold change (FC)", "setting": "[6]", "result": 0.46}, {"measurement": "fold change (FC)", "setting": "[7]", "result": 0.71}, {"measurement": "fold change (FC)", "setting": "[8]", "result": 0.64}, {"measurement": "fold change (FC)", "setting": "[9]", "result": 0.46}, {"measurement": "fold change (FC)", "setting": "[10]", "result": 0.88}, {"measurement": "fold change (FC)", "setting": "[11]", "result": 0.79}, {"measurement": "fold change (FC)", "setting": "[12]", "result": 0.59}, {"measurement": "fold change (FC)", "setting": "[13]", "result": 0.45}, {"measurement": "fold change (FC)", "setting": "[14]", "result": 0.14}, {"measurement": "fold change (FC)", "setting": "[15]", "result": 0.62}, {"measurement": "Activity", "setting": "[16]", "result": "Tde"}, {"measurement": "fold change (FC)", "setting": "[17]", "result": 0.77}, {"measurement": "fold change (FC)", "setting": "[18]", "result": 0.96}, {"measurement": "fold change (FC)", "setting": "[19]", "result": 0.49}, {"measurement": "fold change (FC)", "setting": "[20]", "result": 0.76}, {"measurement": "fold change (FC)", "setting": "[21]", "result": 0.93}, {"measurement": "Activity", "setting": "[22]", "result": "Tde"}, {"measurement": "fold change (FC)", "setting": "[23]", "result": 1.52}, {"measurement": "remaining at 0.5 h, 1 µM", "setting": "[24]", "result": 62.6, "unit": "%"}, {"measurement": "activity at 0.25 h, 10 µM", "setting": "[25]", "result": 89.8, "unit": "%"}, {"measurement": "remaining at 1 h, 10 µM", "setting": "[26]", "result": 85.1, "unit": "%"}, {"measurement": "remaining at 1 h, 10 µM", "setting": "[27]", "result": 22, "unit": "%"}, {"measurement": "remaining at 2 h, 10 µM", "setting": "[28]", "result": 24.8, "unit": "%"}, {"measurement": "Activity", "setting": "[29]", "result": 34.3, "unit": "%"}, {"measurement": "Activity", "setting": "[30]", "result": 19.4, "unit": "%"}, {"measurement": "Activity", "setting": "[31]", "result": 16.8, "unit": "%"}, {"measurement": "Activity", "setting": "[32]", "result": 33.9, "unit": "%"}, {"measurement": "Activity", "setting": "[33]", "result": 9.4, "unit": "%"}, {"measurement": "Activity", "setting": "[34]", "result": 4, "unit": "%"}, {"measurement": "Activity", "setting": "[35]", "result": 77.4, "unit": "%"}, {"measurement": "solubility", "setting": "[36]", "result": "< 1000", "unit": "µg/mL"}, {"measurement": "Papp", "setting": "[37]", "result": "< 1.5", "unit": "×10⁻⁶ cm/s"}]}]}
